Assay results as given in patent publication US9622498B2 (Vera Roasting Company, Inc., priority 2015, dated 2017).

Columns and labels:
[1] = cited from earlier work
[2] = Solubility of resveratrol in glycerin tested using UV/vis spectroscopy; type: physicochemical
Source text: This low solubility inhibits adequate, reproducible absorption from the gastrointestinal tract. For this reason, poor solubility is closely associated with low bioavailability. […] Glycerin engages in H-bonding interactions at both ends of the molecule, forming a 2:1 H-bonding complex.

times more soluble in glycerin than in water ([2]; glycerin versus water): at least 48 times
solubility of resveratrol in glycerin ([2]; glycerin, UV/vis spectroscopy): ≥ 144 mg/100 mL
Structure (SMILES): Oc1ccc(C=Cc2cc(O)cc(O)c2)cc1 [resveratrol, 3,5,4′-trihydroxystilbene]
solubility of resveratrol in water [1]: approximately 3 mg/100 mL
